Patent US20250151724A1, “Liquid Soil Treatments Containing Choline” (Harrell's, LLC, priority 2023, published 2025)
Where two headings read alike, the source gives them in different places.

Tests used:
[1] = Description: Soil cores (1 inch diameter and 6 inches deep) were taken from a creeping bentgrass putting green and dried at 65° C. for 48 hours then allowed to air dry for 2 days. […] The soil cores were allowed to air dry for additional 4 days and the water drop penetration test was repeated using the same method. The four treatments were 1) control (distilled water), 2) distilled water plus choline at 0.125 oz./1,000 ft^2, 3) distilled water plus choline at 0.25 oz./1,000 ft^2, and 4) distilled water plus choline at 0.5 oz./1,000 ft^2. There were 3 replications for each treatment. The water drops from distilled water or choline solution were placed on soil cores 0.75 inch from the soil surface. As soon as the water drops reached the soil, a timer was started. When each water drop had disappeared and the water had penetrated into the soil, the time elapsed was recorded.
creeping bentgrass = test: Experiment No. 1: growth chamber pot trial, foliar GB and choline under heat and mild drought stress; format: in vivo; conditions: for increase of chlorophyll content: day 56, vs control; for Root Viability: TTC method
Description: A growth chamber pot trial was conducted as follows. […] The choline used in this study was supplied in the form of choline chloride from Sigma-Aldrich, Inc. (St. Louis, MO). […] These conditions simulated summer putting green stress. The treatments were as follows: • 1. […] GB at 0.5 oz./1,000 ft^2 every 14 days. • 3. GB at 1.0 oz./1,000 ft^2 every 14 days. • 4. […] The rate and source of fertilization for treatments #2-7 was the same as treatment #1 (fertilized control), so all seven treatments received identical fertility input. […] The term “low rate” is used in this description of Experiment No. 1 to refer to 0.5 oz./1,000 ft^2 treatments, while the term “high rate” is used to refer to 1.0 oz./1,000 ft^2 treatments. […] Photochemical efficiency (PE). Photochemical Efficiency was measured with a chlorophyll fluorometer (OS-50II, Opti-Sciences, Inc., Hudson, NH) biweekly based on the Fv/Fm, which is the ratio of variable chlorophyll fluorescence (Fv) to maximum chlorophyll fluorescence (Fm). […] Chlorophyll content. After clipping yields were weighed, leaf tissues were ground into powder, and chlorophyll was extracted in pure acetone content for 72 hours, and the absorbance was measured using a spectrophotometer. • e. Leaf carotenoids were extracted in the same sample as for chlorophyll content and carotenoids were measured using a spectrophotometer (Zhang et al., 2005). • f. Leaf proline content. […] After centrifuging, the supernatant was collected, and proline was analyzed according to Wu et al., 2017. • g. Root viability. […] Root growth characteristics. At the end of trial, roots from each pot were washed and cleaned. Roots were scanned using WinRHIZOTM technology (Regent Instruments Inc., Quebec, Canada), and root length, root surface area, root diameter, and root volume were calculated. (Zhang et al., 2017). • i. Root biomass of each pot was determined at the end of the trial. Roots were dried at 65° C. for 72 hours before being weighed.

[2] = choline 0.125 oz/1000 ft2 in distilled water
[3] = choline 0.25 oz/1000 ft2 in distilled water
[4] = choline 0.5 oz/1000 ft2 in distilled water

SMILES: C[N+](C)(C)CCO.[Cl-] [Choline, choline chloride]
- time of water drop penetration, first test ([1]; 2 days after oven drying of soil cores, not quantified): reduced the time of water drop penetration
- Time of water drop penetration, Average [1, 2]: 250.3ab seconds
- Time of water drop penetration, Rep I [1, 2]: 454 s
- Time of water drop penetration, Rep II [1, 2]: 106 s
- Time of water drop penetration, Rep III [1, 2]: 191 s
- Time of water drop penetration, Average ([1]; choline 0.125 oz/1000 ft2 in distilled water, listed as choline): 250.3 s
- Time of water drop penetration, Average [1, 3]: 129.7ab seconds
- Time of water drop penetration, Rep I [1, 3]: 110 s
- Time of water drop penetration, Rep II [1, 3]: 72 s
- Time of water drop penetration, Rep III [1, 3]: 207 s
- Time of water drop penetration, Average ([1]; choline 0.25 oz/1000 ft2 in distilled water, listed as choline): 129.7 s
- Time of water drop penetration, Average [1, 4]: 97.7b seconds
- Time of water drop penetration, Rep I [1, 4]: 97 s
- Time of water drop penetration, Rep II [1, 4]: 26 s
- Time of water drop penetration, Rep III [1, 4]: 170 s
- Time of water drop penetration, Average ([1]; choline 0.5 oz/1000 ft2 in distilled water, listed as choline): 97.7 s
- Water drop penetration time shorter relative to the control (distilled water) ([1]; choline solution 0.5 oz./1,000 ft^2): 2.5 fold
- increase of chlorophyll content (creeping bentgrass; 0.5 oz): 32.4%
- Clippings dry wt (creeping bentgrass; 0.5 oz/1000 ft^2, Total): 0.691bc g/pot
- Carotenoids (creeping bentgrass; 0.5 oz/1000 ft^2, day 0): 1.32a mg/g FW
- Chlorophyll (creeping bentgrass; 0.5 oz/1000 ft^2, day 0): 3.50a mg/g FW
- Leaf color (1-9, 9 = dark green) (creeping bentgrass; 0.5 oz/1000 ft^2, day 0): 7.5a
- PE (Fv/Fm) (creeping bentgrass; 0.5 oz/1000 ft^2, day 0): 0.763a
- Proline (creeping bentgrass; 0.5 oz/1000 ft^2, day 0): 20.1a mg/g FW
- Carotenoids (creeping bentgrass; 0.5 oz/1000 ft^2, day 14): 1.32a mg/g FW
- Chlorophyll (creeping bentgrass; 0.5 oz/1000 ft^2, day 14): 3.51a mg/g FW
- Clippings dry wt (creeping bentgrass; 0.5 oz/1000 ft^2, day 14): 0.149b g/pot
- Leaf color (1-9, 9 = dark green) (creeping bentgrass; 0.5 oz/1000 ft^2, day 14): 7.3abc
- PE (Fv/Fm) (creeping bentgrass; 0.5 oz/1000 ft^2, day 14): 0.751a
- Proline (creeping bentgrass; 0.5 oz/1000 ft^2, day 14): 46.1a mg/g FW
- Carotenoids (creeping bentgrass; 0.5 oz/1000 ft^2, day 28): 1.18ab mg/g FW
- Chlorophyll (creeping bentgrass; 0.5 oz/1000 ft^2, day 28): 3.09ab mg/g FW
- Clippings dry wt (creeping bentgrass; 0.5 oz/1000 ft^2, day 28): 0.151b g/pot
- Leaf color (1-9, 9 = dark green) (creeping bentgrass; 0.5 oz/1000 ft^2, day 28): 6.9a
- PE (Fv/Fm) (creeping bentgrass; 0.5 oz/1000 ft^2, day 28): 0.676ab
- Proline (creeping bentgrass; 0.5 oz/1000 ft^2, day 28): 24.3b mg/g FW
- Carotenoids (creeping bentgrass; 0.5 oz/1000 ft^2, day 42): 1.12a mg/g FW
- Chlorophyll (creeping bentgrass; 0.5 oz/1000 ft^2, day 42): 2.76ab mg/g FW
- Clippings dry wt (creeping bentgrass; 0.5 oz/1000 ft^2, day 42): 0.159a g/pot
- Leaf color (1-9, 9 = dark green) (creeping bentgrass; 0.5 oz/1000 ft^2, day 42): 7.1a
- PE (Fv/Fm) (creeping bentgrass; 0.5 oz/1000 ft^2, day 42): 0.631b
- Proline (creeping bentgrass; 0.5 oz/1000 ft^2, day 42): 30.2c mg/g FW
- Carotenoids (creeping bentgrass; 0.5 oz/1000 ft^2, day 56): 1.12a mg/g FW
- Chlorophyll (creeping bentgrass; 0.5 oz/1000 ft^2, day 56): 2.98a mg/g FW
- Clippings dry wt (creeping bentgrass; 0.5 oz/1000 ft^2, day 56): 0.233ab g/pot
- Leaf color (1-9, 9 = dark green) (creeping bentgrass; 0.5 oz/1000 ft^2, day 56): 7.0a
- PE (Fv/Fm) (creeping bentgrass; 0.5 oz/1000 ft^2, day 56): 0.649a
- Proline (creeping bentgrass; 0.5 oz/1000 ft^2, day 56): 79.6a mg/g FW
- Root Biomass (creeping bentgrass; 0.5 oz/1000 ft^2, end of trial): 1.72ab g/pot
- Root Diameter (creeping bentgrass; 0.5 oz/1000 ft^2, end of trial): 0.192a mm
- Root Length (creeping bentgrass; 0.5 oz/1000 ft^2, end of trial): 39.7ab mm/cm^3
- Root SA (surface area) (creeping bentgrass; 0.5 oz/1000 ft^2, end of trial): 2.40ab cm^3/cm^3
- Root Volume (creeping bentgrass; 0.5 oz/1000 ft^2, end of trial): 11.6a dm^3/cm^3
- Root Viability (creeping bentgrass; 0.5 oz/1000 ft^2, end of trial): 0.739bcd A490/g FW
- increase of chlorophyll content (creeping bentgrass; 1.0 oz): 22.2%
- Clippings dry wt (creeping bentgrass; 1.0 oz/1000 ft^2, Total): 0.842ab g/pot
- Carotenoids (creeping bentgrass; 1.0 oz/1000 ft^2, day 0): 1.31a mg/g FW
- Chlorophyll (creeping bentgrass; 1.0 oz/1000 ft^2, day 0): 3.46a mg/g FW
- Leaf color (1-9, 9 = dark green) (creeping bentgrass; 1.0 oz/1000 ft^2, day 0): 7.5a
- PE (Fv/Fm) (creeping bentgrass; 1.0 oz/1000 ft^2, day 0): 0.777a
- Proline (creeping bentgrass; 1.0 oz/1000 ft^2, day 0): 19.8a mg/g FW
- Carotenoids (creeping bentgrass; 1.0 oz/1000 ft^2, day 14): 1.33a mg/g FW
- Chlorophyll (creeping bentgrass; 1.0 oz/1000 ft^2, day 14): 3.51a mg/g FW
- Clippings dry wt (creeping bentgrass; 1.0 oz/1000 ft^2, day 14): 0.187ab g/pot
- Leaf color (1-9, 9 = dark green) (creeping bentgrass; 1.0 oz/1000 ft^2, day 14): 7.5a
- PE (Fv/Fm) (creeping bentgrass; 1.0 oz/1000 ft^2, day 14): 0.738ab
- Proline (creeping bentgrass; 1.0 oz/1000 ft^2, day 14): 43.5ab mg/g FW
- Carotenoids (creeping bentgrass; 1.0 oz/1000 ft^2, day 28): 1.23a mg/g FW
- Chlorophyll (creeping bentgrass; 1.0 oz/1000 ft^2, day 28): 3.31a mg/g FW
- Clippings dry wt (creeping bentgrass; 1.0 oz/1000 ft^2, day 28): 0.183ab g/pot
- Leaf color (1-9, 9 = dark green) (creeping bentgrass; 1.0 oz/1000 ft^2, day 28): 7.3a
- PE (Fv/Fm) (creeping bentgrass; 1.0 oz/1000 ft^2, day 28): 0.718ab
- Proline (creeping bentgrass; 1.0 oz/1000 ft^2, day 28): 24.6b mg/g FW
- Carotenoids (creeping bentgrass; 1.0 oz/1000 ft^2, day 42): 1.17a mg/g FW
- Chlorophyll (creeping bentgrass; 1.0 oz/1000 ft^2, day 42): 2.93a mg/g FW
- Clippings dry wt (creeping bentgrass; 1.0 oz/1000 ft^2, day 42): 0.223a g/pot
- Leaf color (1-9, 9 = dark green) (creeping bentgrass; 1.0 oz/1000 ft^2, day 42): 7.1a
- PE (Fv/Fm) (creeping bentgrass; 1.0 oz/1000 ft^2, day 42): 0.683ab
- Proline (creeping bentgrass; 1.0 oz/1000 ft^2, day 42): 43.8ab mg/g FW
- Carotenoids (creeping bentgrass; 1.0 oz/1000 ft^2, day 56): 1.06a mg/g FW
- Chlorophyll (creeping bentgrass; 1.0 oz/1000 ft^2, day 56): 2.75ab mg/g FW
- Clippings dry wt (creeping bentgrass; 1.0 oz/1000 ft^2, day 56): 0.249a g/pot
- Leaf color (1-9, 9 = dark green) (creeping bentgrass; 1.0 oz/1000 ft^2, day 56): 7.0a
- PE (Fv/Fm) (creeping bentgrass; 1.0 oz/1000 ft^2, day 56): 0.664a
- Proline (creeping bentgrass; 1.0 oz/1000 ft^2, day 56): 67.6a mg/g FW
- Root Biomass (creeping bentgrass; 1 oz/1000 ft^2, end of trial): 1.57ab g/pot
- Root Diameter (creeping bentgrass; 1 oz/1000 ft^2, end of trial): 0.192a mm
- Root Length (creeping bentgrass; 1 oz/1000 ft^2, end of trial): 39.0ab mm/cm^3
- Root SA (surface area) (creeping bentgrass; 1 oz/1000 ft^2, end of trial): 2.32ab cm^3/cm^3
- Root Volume (creeping bentgrass; 1 oz/1000 ft^2, end of trial): 11.0a dm^3/cm^3
- Root Viability (creeping bentgrass; 1 oz/1000 ft^2, end of trial): 1.019abc A490/g FW
